This is an account of results in patent publication US8802664B2 (Bioproject, priority 2010, dated 2014).

Molecules are shown by their SMILES. Where a name gives a salt, the structure may show the parent alone.

Regarding `CN1CCC(OC(c2cccc(OCCF)c2)c2nc3ccccc3[nH]2)CC1` (stereo not drawn) (as salt: oxalate) [Example 476], the melting point (commonly the temperature, or range, at which the solid turns liquid) was 136 °C.

`CNCCOc1cccc(C(OC2CCN(C)CC2)c2nc3ccccc3s2)c1` (stereo not drawn) (as salt: oxalate) [Example 279, (2-{3-[benzothiazol-2-yl(1-methylpiperidin-4-yloxy)methyl]phenoxy}ethyl)methyl-amine] came in with a melting point of 125 °C.

`COc1cc(F)cc(C(OC2CCN(C)CC2)c2nc3ccccc3s2)c1` (stereo not drawn) (as salt: oxalate) [Example 40, 2-[(3-fluoro-5-methoxyphenyl)(1-methylpiperidin-4-yloxy)methyl]benzothiazole] came in with a melting point of 145 °C.

Turning to `CN1CCC(NC(c2cccc(SCc3ccccc3)c2)c2nc3ccccc3[nH]2)CC1` (stereo not drawn) (as salt: oxalate) [Example 104, [(1H-benzimidazol-2-yl)(3-benzylsulfanylphenyl)methyl](1-methylpiperidin-4-yl)amine], the melting point is 127 °C.

For `CN1CCC(OC(c2cccc(N3CC(O)C3)c2)c2nc3ccccc3s2)CC1` (stereo not drawn) (as salt: oxalate) [Example 403, 1-{3-[benzothiazol-2-yl(1-methylpiperidin-4-yloxy)methyl]phenyl}azetidin-3-ol], the melting point was 117 °C.

In turn, `CCOC(=O)c1cccc(C(OC2CCN(C)CC2)c2nc3ccccc3s2)c1` (stereo not drawn) (as salt: oxalate) [Example 206, 3-[benzothiazol-2-yl(1-methylpiperidin-4-yloxy)methyl]benzoic acid ethyl ester] displayed a melting point of 104 °C.

Take `CN1CCC(OC(c2cccc(N3CCCC3CO)c2)c2nc3ccccc3s2)CC1` (stereo not drawn) (as salt: oxalate) [Example 324, (1-{3-[benzothiazol-2-yl(1-methylpiperidin-4-yloxy)methyl]phenyl}pyrrolidin-2-yl)methanol]: the melting point is 99 °C.

`COc1cc(F)cc(C(NC2CCN(C)CC2)c2nc3ccccc3s2)c1` (stereo not drawn) (as salt: oxalate) [Example 43, [benzothiazol-2-yl(3-fluoro-5-methoxyphenyl)methyl](1-methylpiperidin-4-yl)amine] had a melting point of 157 °C.

On to `CN1CCC(OC(c2nc3ccccc3[nH]2)c2cc(OC(F)(F)F)ccc2Cl)CC1` (stereo not drawn) (as salt: oxalate) [Example 524], for which the melting point came to 107 °C.

Molecule `CN1CCC(OC(c2cccc(Cl)c2)c2nc3ccccc3[nH]2)CC1` (stereo not drawn) (as salt: oxalate) [Example 225, 2-[(3-chlorophenyl)(1-methylpiperidin-4-yloxy)methyl]-1H-benzimidazole] had a melting point of 158 °C.

With `CN1CCC(OC(c2cccc(C#CCNC(=N)N)c2)c2nc3ccccc3s2)CC1` (stereo not drawn) (as salt: hydrochloride) [Example 373, N-(3-{3-[benzothiazol-2-yl(1-methylpiperidin-4-yloxy)methyl]phenyl}prop-2-ynyl)guanidine], the melting point is 125 °C.

As to `CN1CCC(OC(c2cccc(OC(F)(F)F)c2)c2nc3ccccc3[nH]2)CC1` (stereo not drawn) (as salt: oxalate) [Example 280, 2-[(1-methylpiperidin-4-yloxy)(3-trifluoromethoxy-phenyl)methyl]-1H-benzimidazole], the melting point came to 172 °C.

The molecule `CN1CCC(OC(c2cccc(-c3ccccc3CO)c2)c2nc3ccccc3s2)CC1` (stereo not drawn) (as salt: oxalate) [Example 127, {3′-[benzothiazol-2-yl(1-methylpiperidin-4-yloxy)methyl]biphenyl-2-yl}methanol] returned a melting point of 206 to 207 °C.

Turning to `CN1CCC(NC(c2cccc(OCCOc3ccccc3)c2)c2nc3ccccc3[nH]2)CC1` (stereo not drawn) (as salt: oxalate) [Example 106, {(1H-benzimidazol-2-yl)[3-(2-phenoxyethoxy)phenyl]methyl}(1-methylpiperidin-4-yl)amine], the melting point turned out to be 140 °C.

Regarding `CN1CCC(OC(c2cccc(OCCCl)c2)c2nc3ccccc3s2)CC1` (stereo not drawn) (as salt: oxalate) [Example 354, 2-[[3-(2-Chloroethoxy)phenyl](1-methylpiperidin-4-yloxy)methyl]benzothiazole], the melting point was 70 °C.

In turn, `Cc1cccc(C(OC2CCN(C)CC2)c2nc3ccccc3s2)c1` (stereo not drawn) (as salt: oxalate) [Example 8, 2-[(1-methylpiperidin-4-yloxy)(m-tolyl)methyl]benzothiazole] yielded a melting point of 177 °C.

`COc1ccc(C(OC2CCN(C)CC2)c2nc3ccccc3s2)cc1` (stereo not drawn) (as salt: hydrochloride) [Example 14, 2-[(4-methoxyphenyl)(1-methylpiperidin-4-yloxy)methyl]benzothiazole] had a melting point of 72 °C.

With `CN1CCC(OC(c2cccc(OCc3ccccn3)c2)c2nc3ccccc3s2)CC1` (stereo not drawn) (as salt: oxalate) [Example 283, 2-{(1-methylpiperidin-4-yloxy)[3-(pyridin-2-ylmethoxy)phenyl]methyl}benzothiazole], the melting point turned out to be 158 °C.

`CCCCOc1cccc(C(OC2CCN(C)CC2)c2nc3ccccc3s2)c1` (stereo not drawn) (as salt: oxalate) [Example 92, 2-[(3-butoxyphenyl)(1-methylpiperidin-4-yloxy)methyl]benzothiazole]: the melting point was 135 °C.

In turn, `CN1CCC(OC(c2cccc(OCC3CCNCC3)c2)c2nc3ccccc3s2)CC1` (stereo not drawn) (as salt: oxalate) [Example 377, 2-{(1-methylpiperidin-4-yloxy)[3-(piperidin-4-ylmethoxy)phenyl]methyl}benzothiazole] had a melting point of 90 °C.

Molecule `CN1CCC(NC(c2cccc(OCCCC3(C)OCCO3)c2)c2nc3ccccc3[nH]2)CC1` (stereo not drawn) (as salt: oxalate) [Example 174, ((1H-benzimidazol-2-yl)-{3-[3-(2-methyl-[1,3]dioxolan-2-yl)-propoxy]phenyl}methyl)(1-methylpiperidin-4-yl)amine] displayed a melting point of 120 °C.

As to `CN1CCC(OC(c2cccc(OC3CCC(N)C3)c2)c2nc3ccccc3s2)CC1` (stereo not drawn) (as salt: oxalate) [Example 453], the melting point is 91 °C.

`CSCCOc1cccc(C(OC2CCN(C)CC2)c2nc3ccccc3s2)c1` (stereo not drawn) (as salt: oxalate) [Example 250, 2-{(1-methylpiperidin-4-yloxy)[3-(2-methylsulfanyl-ethoxy)phenyl]methyl}benzothiazole] yielded a melting point of 89 °C.

As to `CN1CCC(OC(c2cccc(C(F)(F)F)c2)c2nc3ccccc3s2)CC1` (stereo not drawn) (as salt: hydrochloride) [Example 31, 2-[(1-methylpiperidin-4-yloxy)(3-trifluoromethylphenyl)methyl]benzothiazole], the melting point came to 61 °C.

In the case of `CN1CCC(OC(c2cccc(N3CCC(F)C3)c2)c2nc3ccccc3s2)CC1` (stereo not drawn) (as salt: oxalate) [Example 430, 2-[[3-(3-fluoropyrrolidin-1-yl)phenyl](1-methylpiperidin-4-yloxy)methyl]benzothiazole], the melting point amounted to 70 °C.

Molecule `CN1CCC(NC(c2cccc(-c3ccccc3)c2)c2nc3ccccc3s2)CC1` (stereo not drawn) (as salt: oxalate) [Example 102, (benzothiazol-2-ylbiphenyl-3-ylmethyl)(1-methylpiperidin-4-yl)amine] had a melting point of 112 °C.

Molecule `Cc1cc(C(NC2CCN(C)CC2)c2nc3ccccc3s2)ccc1F` (stereo not drawn) (as salt: oxalate) [Example 35, [benzothiazol-2-yl(4-fluoro-3-methyl-phenyl)methyl](1-methylpiperidin-4-yl)amine] yielded a melting point of 160 °C.

As to `CN1CCC(OC(c2cccc(OCCCO)c2)c2nc3ccccc3s2)CC1` (stereo not drawn) (as salt: oxalate) [Example 258, 3-{3-[benzothiazol-2-yl(1-methylpiperidin-4-yloxy)methyl]phenoxy}propan-1-ol], the melting point came out at 79 °C.

`CN1CCC(OC(c2cccc(OCCCCCNCC(=O)OC(C)(C)C)c2)c2nc3ccccc3s2)CC1` (stereo not drawn) (as salt: oxalate) [Example 375, (5-{3-[benzothiazol-2-yl(1-methylpiperidin-4-yloxy)methyl]phenoxy}pentylamino)acetic acid tert-butyl ester] came in with a melting point of 99 °C.

`CN1CCC(OC(c2cccc(OCCCN3CCOCC3)c2)c2nc3ccccc3s2)CC1` (stereo not drawn) (as salt: oxalate) [Example 350, 2-{(1-methylpiperidin-4-yloxy)[3-(3-morpholin-4-yl-propoxy)phenyl]methyl}benzothiazole]: the melting point was 105 °C.

Molecule `CN1CCC(OC(c2ccc3ccccc3c2)c2nc3ccccc3s2)CC1` (stereo not drawn) (as salt: hydrochloride) [Example 18, 2-[(1-methylpiperidin-4-yloxy)naphthalen-2-ylmethyl]benzothiazole] had a melting point of 198 °C.

As for `CC(=O)c1cccc(-c2cccc(C(OC3CCN(C)CC3)c3nc4ccccc4[nH]3)c2)c1` (stereo not drawn) (as salt: oxalate) [Example 110, 1-{3′-[(1H-benzimidazol-2-yl)(1-methylpiperidin-4-yloxy)methyl]biphenyl-3-yl}ethanone], the melting point is 140 °C.

Turning to `CN1CCC(OC(c2cccc(N3CCC(O)C3)c2)c2nc3ccccc3s2)CC1` (stereo not drawn) (as salt: oxalate) [Example 406, 1-{3-[benzothiazol-2-yl(1-methylpiperidin-4-yloxy)methyl]phenyl}pyrrolidin-3-ol], the melting point was 103 °C.

In turn, `CC(C)Oc1cccc(C(NC2CCN(C)CC2)c2nc3ccccc3s2)c1` (stereo not drawn) (as salt: oxalate) [Example 88, [benzothiazol-2-yl(3-isopropoxyphenyl)methyl](1-methylpiperidin-4-yl)amine] registered a melting point of 96 °C.

`CCOC(=O)NCCCCC#Cc1cccc(C(OC2CCN(C)CC2)c2nc3ccccc3n2C)c1` (stereo not drawn) (as salt: oxalate) [Example 549, ethyl (6-{3-[(1-methyl-1H-benzimidazol-2-yl)(1-methylpiperidin-4-yloxy)methyl]phenyl}hex-5-ynyl)carbamate] yielded a melting point of 90 °C.

`C=CCCCOc1cccc(C(OC2CCN(C)CC2)c2nc3ccccc3s2)c1` (stereo not drawn) (as salt: oxalate) [Example 168, 2-[(1-methylpiperidin-4-yloxy)(3-pent-4-enyloxy-phenyl)methyl]benzothiazole] yielded a melting point of 75 °C.
